In patent US20200030463A1, “USE RADIUM RA-223 […] THE TREATMENT OF MULTIPLE MYELOMA” (Bayer Aktiengesellschaft, priority 2017, published 2020):

Legend:
[1] = system: JJN-3, L-363, LP-1, MOLP-8, RPMI-8226, OPM-2 and 5TGM1 cells; assay: Proliferation assays, all cancer cell lines tested; type: cell-based, human and mouse
Description: (§1) Proliferation assays were performed with human plasma cell leukemia (JJN-3, L-363), human multiple myeloma (LP-1, MOLP-8, RPMI-8226 and OPM-2) and mouse MM 5TGM1 cells. The corresponding in vivo effects were studied in a syngeneic 5TGM1 mouse MM model. Female C57BL/KaLwRij mice (6-9 weeks old, n=15/group) were inoculated with 5TGM1 cells via tail vein and 26 days later, radium-223 (300 kBq/kg, single iv injection) and/or bortezomib (1 mg/kg ip, twice a week) or vehicle control were administered. The development of the osteolytic lesions was detected by radiography. The hind limbs were used for histological analyses and total activity measurement performed by a gamma-counter. Osteoclast number at tumor-bone interface was measured using TRAP staining.

[2] = system: JJN-3 human plasma cell leukemia cells; assay: Proliferation assay, JJN-3; type: cell-based; settings: JJN3 cells
Description: as §1

[3] = system: OPM-2 human multiple myeloma cells; assay: Proliferation assay, OPM-2; type: cell-based; settings: OPM-2 cells
Description: as §1

[4] = system: syngeneic 5TGM1 mouse MM model; assay: Syngeneic 5TGM1 mouse MM model; type: in vivo; settings: p<0.05 bortezomib; for osteolytic lesion area: radiography, radium-223 300 kBq/kg single iv and/or bortezomib 1 mg/kg ip twice a week, p=0.01 radium-223, p<0.001 combination
Description: as §1

[5] = system: patients with bone metastases; settings: cited from earlier work
[6] = system: MOLP-8 human multiple myeloma cells; assay: Proliferation assay, MOLP-8; type: cell-based; settings: MOLP-8 cells
Description: as §1, with “staining. Bortezomib inhibited proliferation of all cancer cell lines tested at 25 nM (JJN3 and OPM-2 at 2.5 nM) and radium-223 at 800 Bq/ml (L-363 and MOLP-8 at 200 Bq/ml). […] In 5TGM1 MM model, both bortezomib and radium-223 decreased osteolytic lesion area as monotherapy (p<0.05 and p=0.01, respectively). […] All treatments were well tolerated.” for “staining.”

[7] = single dose 250 kBq per kg body weight; cited from earlier work
[8] = system: L-363 human plasma cell leukemia cells; assay: Proliferation assay, L-363; type: cell-based; settings: L-363 cells
Description: as §1, with “staining. Bortezomib inhibited proliferation of all cancer cell lines tested at 25 nM (JJN3 and OPM-2 at 2.5 nM) and radium-223 at 800 Bq/ml (L-363 and MOLP-8 at 200 Bq/ml). […] In 5TGM1 MM model, both bortezomib and radium-223 decreased osteolytic lesion area as monotherapy (p<0.05 and p=0.01, respectively). […] All treatments were well tolerated.” for “staining.”

[9] = system: patients with CRPC and bone metastases; settings: cited from earlier work
[10] = phase 2 studies, CRPC and bone metastases

| SMILES | concentration at which proliferation was inhibited [1] [nM] | concentration at which proliferation was inhibited [2] [nM] | concentration at which proliferation was inhibited [3] [nM] | number of osteoclasts at tumor-bone interface ([4]; TRAP staining, p<0.01 combination) | osteolytic lesion area [4] | safety profile ([5]; phase 1 and 2 studies) | disease-related biomarkers (bone ALP, PSA) [5, 10] | pain [5, 10] | activity concentration at which proliferation was inhibited [1] [Bq/ml] | activity concentration at which proliferation was inhibited [6] [Bq/ml] | cases of grade 3 neutropenia [7] | observed adverse reactions [7] | activity concentration at which proliferation was inhibited [8] [Bq/ml] | median survival longer than placebo ([9]; CRPC with bone metastases) [months] | median overall survival ([9]; Phase III clinical trials) | reduction in risk of death compared with placebo ([9]; overall survival, CRPC with bone metastases) [%] | time to first skeletal-related event ([9]; vs placebo) |
| --- | --- | --- | --- | --- | --- | --- | --- | --- | --- | --- | --- | --- | --- | --- | --- | --- | --- |
| CC(C)C[C@H](NC(=O)[C@H](Cc1ccccc1)NC(=O)c1cnccn1)B(O)O [bortezomib] | 25 | 2.5 | 2.5 | decreased | decreased |  |  |  |  |  |  |  |  |  |  |  |  |
| [Cl][223Ra][Cl] [radium-223, radium-223 dichloride] |  |  |  |  | decreased | favorable safety profile with minimal myelotoxicity | improves | reduces pain | 800 | 200 | 1/5 | diarrhea and reversible myelosuppression | 200 | 2.8 | Significant increase | 30.5 | significantly prolonged |
